Assay type in all cases: cell-based
For assay [1], the system named is IL-13. As to the kind of experiment: Cytokine assay: IL-13 release from PHA-L stimulated human PBMCs. Conditions: read-out: IL13 IC50. The protocol: (§1) Cytokine inhibitory activity is determined by measuring the effect of test agent on the release of the cytokines IL-4, IL-13 and IFNγ from human peripheral blood mononuclear cells (PBMCs) stimulated with the T-cell mitogen phytohemagglutinin-L (PHA-L). At the time of assay, human PBMCs (Astarte Biologics) are removed from cryopreservation, thawed quickly at 37° C., diluted in assay medium (RPMI-Gibco 1640 medium, 10% heat inactivated fetal bovine serum (HIFBS), 2 mM glutamine and 10 mM HEPES pH 7.4) and then centrifuged at 250×g for 5 minutes. The resulting cell pellet is re-suspended in assay medium to a concentration of approximately 5×10^6 cells/mL and 50 μL of this cell suspension (approximately 250,000 cells) is added to each well of a 384-well cell culture microtiter plate (Perkin Elmer). Varying concentrations of test compound are then diluted in assay medium and added to the assay plate wells in a volume of 25 μL. After −10 minutes at room temperature (21° C.) the cells are stimulated by the addition of 25 μL of PHA-L (14 μg/mL; Millipore) and the assay plate is placed in an incubator at 37° C. in a humidified environment in 5% carbon dioxide. The final assay conditions are approximately 250,000 human PBMCs per well in assay medium containing 3.5 μg/mL PHA-L and the indicated final concentration of test compound (approximately 10 μM to […] by 4-fold dilution). The final concentration of DMSO in the assay is approximately 0.25%. After 48 hours, the assay plate is removed from the incubator and centrifuged at 250×g for 5 minutes. A portion of the resulting cell supernatant is then used to determine the amount of IL-4, IL-13 and IFNγ in each well. Cytokine measurements are made using human IL-4, IL-13 or IFNγ HTRF assay kits (CisBio) following the manufacturer's assay protocol. The concentrations and resulting effect values for tested compounds are plotted and the concentration of compound required for 50% effect (IC50) is determined with a four-parameter logistic dose response equation (E-WorkBook, ID Business Solutions Ltd.) and shown in Table 17.

The subject of assay [2] is IL-4. As to the kind of experiment: Cytokine assay: IL-4 release from PHA-L stimulated human PBMCs. To be noted: read-out: IL4 IC50. The protocol:
as §1

The test system of assay [3] is IFNγ. Nature of the assay: Cytokine assay: IFNγ release from PHA-L stimulated human PBMCs. The protocol: as §1

Like-named read-outs stand apart in the source and are kept apart here.

One may read the IC50 as the concentration needed to halve the response being measured. In the case of `CCOc1cc(-c2cncc(C3COB(O)C3)c2)c(C)cc1OC` (single isomer, unassigned) [Example 70, 4-(5-(5-ethoxy-4-methoxy-2-methylphenyl)pyridin-3-yl)-1,2-oxaborolan-2-ol], the IC50 in assay [1] was 890 nM; in assay [2], 4.31 nM; in assay [3], 2.85 nM.
The matching figures for `CCOc1cc(-c2cncc(C3COB(O)C3)c2)c(C)cc1OC` (single isomer, unassigned) [Example 71, 4-(5-(5-ethoxy-4-methoxy-2-methylphenyl)pyridin-3-yl)-1,2-oxaborolan-2-ol]: 1910 nM, 42 nM and 18.8 nM.
Regarding `CCOc1ccc(-c2cncc(C3COB(O)C3)c2)cc1OCC` (single isomer, unassigned) [Example 97, 4-(5-(3,4-diethoxyphenyl)pyridin-3-yl)-1,2-oxaborolan-2-ol], the IC50 in assay [1] stood at 465 nM; in assay [2], 34 nM; in assay [3] (Homo sapiens, PBMC), 2.81 nM.
For `CSc1ccc(-c2cncc(C3COB(O)C3)c2)cc1OC1CCCC1` (single isomer, unassigned) [Example 100, 4-(5-(3-(cyclopentyloxy)-4-(methylthio)phenyl)pyridin-3-yl)-1,2-oxaborolan-2-ol], the IC50 came out at 472 nM in assay [1]; 32.7 nM in assay [2] (Homo sapiens, PBMC); 4.32 nM in assay [3].
For `CSc1ccc(-c2cncc(C3COB(O)C3)c2)cc1OC1CCCC1` (single isomer, unassigned) [Example 101, 4-(5-(3-(cyclopentyloxy)-4-(methylthio)phenyl)pyridin-3-yl)-1,2-oxaborolan-2-ol], the IC50 in assay [1] came out at 2650 nM; in assay [2], 26 nM; in assay [3] it was 13.3 nM.
On to `CCCOc1cc(-c2nc(COC)cc(C3COB(O)C3)n2)ccc1OC` (single isomer, unassigned) [Example 103, 4-(2-(4-methoxy-3-propoxyphenyl)-6-(methoxymethyl)pyrimidin-4-yl)-1,2-oxaborolan-2-ol], for which the IC50 in assay [1] (Homo sapiens, PBMC) came to 487 nM; in assay [2] (Homo sapiens, PBMC) it was 0.83 nM; in assay [3] (Homo sapiens, PBMC) it was 0.76 nM.
As for `CCCOc1cc(-c2cncc(C3COB(O)C3)c2)ccc1SC` (single isomer, unassigned) [Example 114, 4-(5-(4-(methylthio)-3-propoxyphenyl)pyridin-3-yl)-1,2-oxaborolan-2-ol], the IC50 stood at 2910 nM in assay [1] (Homo sapiens, PBMC); 32.7 nM in assay [2] (Homo sapiens, PBMC); 21.5 nM in assay [3] (Homo sapiens, PBMC).
Taken in the same sequence, the figures for `CCCOc1cc(-c2cc(C3COB(O)C3)cnn2)ccc1OC` (single isomer, unassigned) [Example 136, 4-(6-(4-methoxy-3-propoxyphenyl)pyridazin-4-yl)-1,2-oxaborolan-2-ol] were 670 nM, 11.7 nM and 2.43 nM.
Taken in the same sequence, the figures for `CCOc1cc(-c2cncc(C3COB(O)C3)c2)cc(Cl)c1OC` (stereo not drawn) [Example 45, 4-(5-(3-chloro-5-ethoxy-4-methoxyphenyl)pyridin-3-yl)-1,2-oxaborolan-2-ol] were 450 nM, 12.4 nM and 3.88 nM.
Taken in the same sequence, the figures for `CCCOc1cc(-c2cncc(C3COB(O)C3)c2)c(F)cc1OC` (stereo not drawn) [Example 49, 4-(5-(2-fluoro-4-methoxy-5-propoxyphenyl)pyridin-3-yl)-1,2-oxaborolan-2-ol] were 166 nM, 4.4 nM and 3.21 nM.
On to `CCCOc1cc(-c2cncc(C3COB(O)C3)c2)ccc1OC(F)F` (stereo not drawn) [Example 50, 4-(5-(4-(difluoromethoxy)-3-propoxyphenyl)pyridin-3-yl)-1,2-oxaborolan-2-ol], for which the half-inhibitory concentration (IC50) in assay [1] (Homo sapiens, PBMC) came out at 234 nM; in assay [2] (Homo sapiens, PBMC), 1.04 nM; in assay [3] (Homo sapiens, PBMC), 1.52 nM.
Taken in the same sequence, the figures for `CCCOc1cc(-c2cc(CO)cc(C3COB(O)C3)n2)ccc1OC` (stereo not drawn) [Example 64, 4-(4-(hydroxymethyl)-6-(4-methoxy-3-propoxphenyl)pyridin-2-yl)-1,2-oxaborolan-2-ol] were 325 nM, 8.04 nM and 4.44 nM.
Taken in the same sequence, the figures for `COc1ccc(-c2cccc(C3COB(O)C3)n2)cc1OC1CCCC1` (stereo not drawn) [Example 65, 4-(6-(3-(cyclopentyloxy)-4-methoxyphenyl)pyridin-2-yl)-1,2-oxaborolan-2-ol] were 814 nM, 186 nM and 5.34 nM.
Regarding `CCCOc1c(OC)ccc(-c2cncc(C3COB(O)C3)c2)c1F` (stereo not drawn) [Example 82, 4-(5-(2-fluoro-4-methoxy-3-propoxphenyl)pyridin-3-yl)-1,2-oxaborolan-2-ol], the IC50 in assay [1] worked out at 426 nM; in assay [2] it was 7.14 nM; in assay [3] it was 1.07 nM.
With `CCCOc1cc(-c2nc(C(C)O)cc(C3COB(O)C3)n2)ccc1OC` (stereo not drawn) [Example 83, 4-(6-(1-hydroxyethyl)-2-(4-methoxy-3-propoxyphenyl)pyrimidin-4-yl)-1,2-oxaborolan-2-ol], the IC50 in assay [1] (Homo sapiens, PBMC) is 439 nM; in assay [2] (Homo sapiens, PBMC), 9.42 nM; in assay [3] (Homo sapiens, PBMC), 4.73 nM.
The matching figures for `CCCOc1cc(-c2nc(COC)cc(C3COB(O)C3)n2)ccc1OC` (stereo not drawn) [Example 102, 4-(2-(4-methoxy-3-propoxyphenyl)-6-(methoxymethyl)pyrimidin-4-yl)-1,2-oxaborolan-2-ol]: 1240 nM, 2.07 nM and 3.01 nM.
In the case of `COc1ccc(-c2cncc(C3COB(O)C3)c2)c(F)c1OC` (stereo not drawn) [Example 108, 4-(5-(2-fluoro-3,4-dimethoxyphenyl)pyridin-3-yl)-1,2-oxaborolan-2-ol], the IC50 in assay [1] is 493 nM; in assay [2], 22.1 nM; in assay [3], 4.35 nM.
The matching figures for `CCCOc1cc(-c2cncc(C3COB(O)C3)c2)ccc1SC` (stereo not drawn) [Example 113, 4-(5-(4-(methylthio)-3-propoxyphenyl)pyridin-3-yl)-1,2-oxaborolan-2-ol]: 497 nM, 36.1 nM and 3.81 nM.
As to `CCCOc1c(OC)ccc(-c2cccc(C3COB(O)C3)c2)c1F` (stereo not drawn) [Example 116, 4-(2′-fluoro-4′-methoxy-3′-propoxy-[1,1′-biphenyl]-3-yl)-1,2-oxaborolan-2-ol], the IC50 amounted to 508 nM in assay [1] (Homo sapiens, PBMC); 42 nM in assay [2] (Homo sapiens, PBMC); 2.45 nM in assay [3] (Homo sapiens, PBMC).
The matching figures for `COc1cnc(-c2cccc(C3COB(O)C3)c2)nc1OC` (stereo not drawn) [Example 122, 4-(3-(4,5-dimethoxypyrimidin-2-yl)phenyl)-1,2-oxaborolan-2-ol]: 567 nM, 362 nM and 7.49 nM.
The matching figures for `CCCOc1cc(-c2cccc(C3COB(O)C3)n2)ccc1OC` (stereo not drawn) [Example 127, 4-(6-(4-methoxy-3-propoxyphenyl)pyridin-2-yl)-1,2-oxaborolan-2-ol]: 585 nM, 62.6 nM and 2.84 nM.
Taken in the same sequence, the figures for `COc1ccc(-c2nc(C3COB(O)C3)ccc2F)cc1OC1CCCC1` (stereo not drawn) [Example 131, 4-(6-(3-(cyclopentyloxy)-4-methoxyphenyl)-5-fluoropyridin-2-yl)-1,2-oxaborolan-2-ol] were 591 nM, 11.6 nM and 5.7 nM.
On to `CCCOc1cc(-c2cc(C3COB(O)C3)cnn2)ccc1OC` (stereo not drawn) [Example 137], for which the IC50 in assay [1] (Homo sapiens, PBMC) is 1090 nM; in assay [2] (Homo sapiens, PBMC), 37.2 nM; in assay [3] (Homo sapiens, PBMC), 2.52 nM.
The matching figures for `CCOc1cc(-c2cncc(C3COB(O)C3)c2)ccc1SC` (stereo not drawn) [Example 144, 4-(5-(3-ethoxy-4-(methylthio)phenyl)pyridin-3-yl)-1,2-oxaborolan-2-ol]: 706 nM, 83.9 nM and 5.02 nM.
The matching figures for `COc1ccc(-c2cccc(C3COB(O)C3)c2)c(C#N)c1OC` (stereo not drawn) [Example 177, 3′-(2-hydroxy-1,2-oxaborolan-4-yl)-3,4-dimethoxy-[1,1′-biphenyl]-2-carbonitrile]: 1220 nM, 155 nM and 8.49 nM.
Taken in the same sequence, the figures for `COc1ccc(-c2cccc(C3COB(O)C3)c2)cc1OCC(C)C` (stereo not drawn) [Example 183, 4-(3′-isobutoxy-4′-methoxy-[1,1′-biphenyl]-3-yl)-1,2-oxaborolan-2-ol] were 1370 nM, 102 nM and 6.4 nM.
For the compound `CCCOc1cc(-c2nc(OCCO)cc(C3COB(O)C3)n2)ccc1OC` (stereo not drawn) [Example 195, 4-(6-(2-hydroxyethoxy)-2-(4-methoxy-3-propoxyphenyl)pyrimidin-4-yl)-1,2-oxaborolan-2-ol], the IC50 was found to be 2190 nM in assay [1] (Homo sapiens, PBMC); 0.36 nM in assay [2] (Homo sapiens, PBMC); 0.33 nM in assay [3] (Homo sapiens, PBMC).

Source of the values: patent US11559538B2, “Substituted 1,2-oxaborolan-2-ols as PDE4 inhibitors” (Pfizer Inc., priority 2018, dated 2023).
